Drawing on PubChem BioAssay (NCI), this text covers TGI and GI50 for 12 compounds.

Common to all, as to assay: inhibition of tumour cell growth, NCI panel, 48 h
Assay [1] deals with CCRF-CEM leukemia.
Assay [2] has as its system HCT-116 colon.
Assay [3] relates to HL-60(TB) leukemia.
For assay [4], the system named is IGROV1 ovarian.
Assay [5] has as its system RXF 393 renal.
The test system of assay [6] is SF-295 CNS.
The test system of assay [7] is SN12C renal.
Assay [8] concerns SR leukemia.
The test system of assay [9] is U251 CNS.
For assay [10], the system named is UACC-257 melanoma.

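Each compound was tested at five concentrations against cells in 96-well plates for 48 hours. GI50: concentration for 50% inhibition of growth. TGI: concentration producing complete growth inhibition.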

As to `COc1cc2c(cc1O)[C@H](Cc1ccc(Oc3cc(C[C@H]4c5cc(OC)c(OC)cc5CCN4C)ccc3OC)cc1)NCC2`, the TGI in assay [1] was determined as 37 µM; in assay [2], 20.9 µM; in [3], 34.6 µM; in assay [4], 33 µM; in assay [5], 18.3 µM; in [6], 24.2 µM. The TGI in [7] was determined as 31.1 µM; in assay [8] it was 30.1 µM; in assay [9], 24.3 µM; in [10] it was 29.7 µM.
On to `CC(=O)CC(=O)c1cc2c(=O)oc(C)cc2oc1=O`, for which the TGI in [1], in [2], in assay [3], in [4], in assay [5] and in assay [6] was greater than 37.5 µM each time. In addition, the TGI in [7], in assay [8], in assay [9] and in assay [10] was greater than 37.5 µM in each case.
Turning to `O=C(O)Cc1c[nH]c2ccc(F)cc12`, the TGI in assay [1], in assay [2], in assay [3], in assay [4], in assay [5] and in assay [6] was greater than 100 µM in each case. The TGI in assay [7], in assay [8], in [9] and in assay [10] was greater than 100 µM in each case.
As for `CCCCCCCCCCCCCCC1OC(=O)c2ccccc21` (stereo not given), the TGI was greater than 100 µM in assay [1]; greater than 100 µM in assay [2]; 40.7 µM in assay [3]; greater than 100 µM in assay [4]; greater than 100 µM in [5]; greater than 100 µM in assay [6]. Further, the TGI was 75.9 µM in assay [7], greater than 100 µM in [8], greater than 100 µM in assay [9] and greater than 100 µM in assay [10].
Take `N#Cc1nc(-c2ccc(F)cc2)oc1S(=O)(=O)N1CCOCC1`: the GI50 in assay [1] was 1.62 µM; in [2], 1.28 µM; in assay [3], 1.91 µM; in assay [4] it was 3.68 µM; in assay [5], 1.49 µM; in assay [6] it was 16.1 µM. The GI50 in [7] was 1.77 µM; in assay [8], 0.439 µM; in [9], 14.5 µM; in [10], 7 µM. Moreover, the TGI was 7.35 µM in assay [1]; 3.07 µM in assay [2]; 4.76 µM in [3]; 14.6 µM in [4]; 2.92 µM in assay [5]; 30.6 µM in assay [6]. Also, the TGI in assay [7] is 4.1 µM; in [8] it was 2.92 µM; in assay [9], 31.5 µM; in assay [10] it was 20.7 µM.
For the compound `O=C1Oc2cc3c(c4cccc1c24)OCN(c1ccc(Cl)cc1)C3`, the TGI in assay [1] was 45.7 µM; in [2] it was 29.3 µM; in assay [3], greater than 55.5 µM; in [4] it was greater than 100 µM; in assay [5] it was greater than 84.2 µM; in assay [6] it was greater than 100 µM. Besides, the TGI in [7] is 29.1 µM; in assay [8], 49 µM; in assay [9], greater than 79.5 µM; in [10], greater than 100 µM.
`O=S(=O)(O)C(O)/C=C/c1ccccc1` (stereo not given): the TGI in assay [1], in assay [2], in assay [3], in [4], in [5] and in assay [6] was greater than 100 µM each time. The TGI in assay [7], in assay [8], in assay [9] and in [10] was greater than 100 µM each time.
Take `CC(C)(C)C1=NC(S)NC(CCC(=O)Nc2ccccc2[N+](=O)[O-])=C1` (stereo not given): the TGI in assay [1], in assay [2], in assay [3], in [4], in assay [5] and in assay [6] was greater than 100 µM throughout. In addition, the TGI in [7], in assay [8], in assay [9] and in assay [10] was greater than 100 µM in each case.
Turning to `COC(=O)c1c2c(c(C)[n+]([O-])c1C)C(=O)C=CC2=O`, the GI50 is 0.0559 µM in assay [1]; 0.945 µM in [2]; 2.16 µM in assay [3]; 1.74 µM in assay [4]; 1.42 µM in [5]; 1.78 µM in assay [6]. Besides, the GI50 was 1.62 µM in assay [7], 2.28 µM in [8], 1.48 µM in assay [9] and 1.57 µM in assay [10]. In addition, the TGI in assay [1] came to 7.3 µM; in assay [2] it was 7.5 µM; in [3] it was 4.84 µM; in [4], 4.25 µM; in assay [5] it was 2.88 µM; in assay [6], 3.34 µM. In addition, the TGI in [7] is 3.1 µM; in assay [8], 8.19 µM; in [9] it was 2.83 µM; in [10], 3.34 µM.
With `OCCNCO`, the TGI in [1], in assay [2], in [3], in assay [4], in [5] and in assay [6] was greater than 100 µM each time. Further, the TGI in assay [7], in assay [8], in assay [9] and in assay [10] was greater than 100 µM in each case.
Regarding `C[C@@H]1Cc2c([nH]c3ccccc23)[C@@H](c2c(F)cc(/C=C/C(=O)O)cc2F)N1CC(C)(C)F`, the GI50 in assay [1] was 12 µM; in [2], 12.7 µM; in assay [3] it was 15.8 µM; in assay [4], 16.4 µM; in assay [5], 11.7 µM; in assay [6], 8.65 µM. Besides, the GI50 in assay [7] is 11.9 µM; in [8], 15.9 µM; in [9] it was 10.5 µM; in assay [10] it was 21.7 µM. For the same compound, the TGI in assay [1] came out at 33.8 µM; in assay [2], 26.7 µM; in assay [3], 39.4 µM; in assay [4], 37.2 µM; in assay [5], 26.2 µM; in assay [6] it was 22.6 µM. The TGI in [7] amounted to 38.3 µM; in [8] it was 48.4 µM; in assay [9], 25 µM; in assay [10], 49.7 µM.
Regarding `Cc1c(Cl)cccc1Nc1ncccc1C(=O)O`, the GI50 in [1] is 64.2 µM; in assay [2], 46.8 µM; in [3], greater than 100 µM; in assay [4] it was greater than 100 µM; in [5] it was greater than 100 µM; in assay [6], 16.7 µM. Besides, the GI50 in assay [7] is greater than 100 µM; in assay [8], greater than 100 µM; in assay [9], 63.4 µM; in [10], greater than 100 µM. For the same compound, the TGI in [1] is greater than 100 µM; in assay [2], greater than 100 µM; in assay [3] it was greater than 100 µM; in assay [4], greater than 100 µM; in [5], greater than 100 µM; in assay [6], 76.7 µM. Also, the TGI in assay [7], in assay [8], in [9] and in assay [10] was greater than 100 µM each time.
